# Laboratory results published in US8524661B2, “Inhibiting serum response factor (SRF) to improve glycemic control” (Joslin Diabetes Center, Inc., priority 2008, dated 2013).
# “Also recorded” adds a separate entry of the source.
# How the values were obtained:
# [1] = tested on: SRF target gene expression; assay: SRF target gene expression in CCG-1423 treated cells; format: cell-based; settings: basal or insulin stimulated state
# Description: (§1) The molecular mechanism of the ability of CCG-1423 to reverse insulin resistance was further explored. The insulin—insulin receptor (1R)—insulin receptor substrate (IRS-1) pathway is the dominant up-stream signalling activator of Akt.
# [2] = tested on: L6 myotubes; assay: 2-deoxyglucose uptake in L6 myotubes; format: cell-based; settings: CCG-1423 1 uM, 16 hours, FIG. 11E
# Description: FIG. 11E is a line graph showing that both basal and insulin-stimulated 2-deoxyglucose uptake are increased by >4-fold in L6 myotubes following CCG-1423, with enhanced insulin sensitivity (1 uM, 16 hours). * indicates p<0.05, **p<0.01, ***p<0.001.
# [3] = tested on: mice with diet-induced obesity; assay: CCG-1423 treatment of mice with diet-induced obesity (HFD); format: in vivo
# Description: To examine the therapeutic potential of this SRF inhibitor in vivo, we assessed responses to CCG-1423 treatment in mice with diet-induced obesity. […] The HFD mice were administered CCG-1423 (0.15 mg/kg body weight intraperitoneally) for two weeks.
# In parallel, the high insulin levels associated with insulin resistance were normalized by CCG-1423 treatment (FIG. 13C).
# [4] = tested on: GLUT4; assay: GLUT4 expression in myotubes; format: cell-based; settings: CCG-1423 treatment, p<0.004
# Description: (§2) Since CCG-1423 increased insulin signalling in myotubes, we hypothesized that CCG-1423 might also enhance glucose uptake. In DMSO (vehicle)-treated myotubes, insulin stimulated a 2-fold increase in deoxyglucose uptake in a dose-dependent manner, consistent with prior reports and the low insulin responsiveness in cultured myotubes (FIG. 11E). […] In parallel, expression of the dominant glucose transporters GLUT4 and GLUT1 was increased by CCG-1423 treatment by 4.1 and 2.5 fold, respectively (p<0.004).
# [5] = tested on: p42/44 ERK; assay: ERK phosphorylation in C2C12 myotubes (phosphoimmunoblot); format: cell-based; settings: overnight 1 μM CCG-1423, FIG. 11C
# Description: (§3) In parallel, CCG-1423 enhanced insulin action in C2C12 myotubes. Overnight treatment with 1 μM CCG-1423 increased insulin-stimulated Akt phosphorylation, both in the presence and absence of dexamethasone (41% for both, p=0.01 and p=0.007, respectively), while having no effect on p42/44 ERK phosphorylation (FIG. 11C).
# [6] = tested on: SRF transcriptional activity; assay: SRF transcriptional activity, 4x CArG (SRE) promoter luciferase reporter in C2C12 cells; format: cell-based
# Description: To determine whether SRF transcriptional activity is also changed in insulin resistance, 4× tandem repeat of SRF binding element (SRE) CArG boxes (Kuwahara et al., Mol. Cell Biol. 25:3173-3181 (2005)) promoters linked to a luciferase gene were used as a reporter.
# [7] = tested on: human myotubes; assay: Basal glucose uptake in human myotubes from control and diabetic subjects; format: cell-based
# Description: The effects of CCG-1423 on human myotubes, and whether these effects would differ in myotubes derived from controls (n=2) vs. diabetic subjects (n=6), were also evaluated. […] The differential responsiveness in subjects with DM supports the concept that SRF pathways are more robustly activated in humans with insulin resistance and DM, and therefore potentially more sensitive to SRF inhibition.
# [8] = tested on: Akt; assay: Akt phosphorylation in myotubes (phosphoimmunoblot); format: cell-based; settings: for increase of insulin-stimulated Akt phosphorylation: C2C12 myotubes
# Description: (§4) siRNA was used to specifically reduce MKL1 expression, achieving an effective knockdown of about 60%. This increased insulin-stimulated phosphorylation of Akt (Ser473), expressed relative to total Akt protein content, by 2-fold (p<0.01). […] Thus, siRNA-mediated reduction in MKL1 expression enhances both basal and insulin-stimulated glucose uptake in cultured myotubes.
# The next experiments were performed to determine whether SRF transcriptional activity, rather than expression of SRF itself, is important for maintaining appropriate insulin sensitivity. A new compound, CCG-1423, is available for specifically inhibiting SRF transcriptional activity (Evelyn et al., Mol. Cancer. Ther. 6:2249-2260 (2007)). […] CCG-1423 was then evaluated to test the possibility that reducing SRF transcriptional activity improves insulin sensitivity. Indeed, this is the case. A dramatic improvement in insulin sensitivity resulted from treatment with CCG-1423 in dexamethasone-induced insulin resistant myotubes, as CCG-1423 increased insulin-simulated Akt phosphorylation (a marker of insulin sensitivity) (FIG. 11A).
# as §3
# [9] = tested on: IRS-1; assay: IR / IRS-1 tyrosine phosphorylation and p85 PI 3-kinase association in myotubes; format: cell-based
# Description: FIG. 11D is a phosphoimmunoblot showing that CCG-1423 increases basal and insulin-stimulated tyrosine phosphorylation of IRS-1 and its association with p85-PI 3-kinase, in both control and DEX-treated myotubes. * indicates p<0.05, **p<0.01, ***p<0.001.
# as §1, §3
# [10] = tested on: MKL1; assay: MKL1 cellular localization in C2C12 myoblasts; format: cell-based
# [11] = tested on: C2C12 myotubes; assay: Deoxyglucose uptake in cultured (C2C12) myotubes; format: cell-based; settings: FIG. 11E
# Description: as §4, §2
# [12] = tested on: GLUT1; assay: GLUT1 expression in myotubes; format: cell-based; settings: CCG-1423 treatment, p<0.004
# Description: as §2
# [13] = tested on: MKL1-dependent and -independent SRF pathways; assay: Gene set enrichment of SRF pathways in C2C12 myotubes; format: cell-based; settings: compared with control BSA treated cells
# [14] = tested on: SRF; assay: Low density DNA binding arrays, SRF DNA binding activity; format: cell-based; settings: C2C12 myotubes
# Description: To explore the above possibility, DNA binding activity of SRF and it co-factor ELK1 to the target gene promoter was first evaluated. To this end, electrophoretic mobility shift assays (EMSA) were performed. […] In support to this idea, in low density DNA binding arrays, SRF DNA binding activity was dramatically (5-10 fold, respectively) increased in primary myotubes from insulin resistant human and free fatty acid (FFA)-treated C2C12 myotubes compared to control.
# [15] = tested on: STARS; assay: STARS expression in C2C12 myotubes after actin disruption; format: cell-based; settings: p<0.03, not shown
# Description: Additional pathway analysis using MAPPFinder confirmed that serum response factor (SRF)-dependent and actin-related cytoskeleton gene expression is increased in diabetes, and more importantly, also in insulin resistance. The top-ranking single gene differentially expressed in skeletal muscle in the fasting state is the Actin-binding Rho activating protein (ABRA), or STARS, increased by 2.5 fold in individuals with type 2 diabetes (p<0.01). This gene regulates intracellular actin dynamics and subcellular localization of MKL1/2, thus contributing to SRF-dependent gene transcription. Since disruption of actin by latrunculin B increases STARS expression in C2C12 cells by 50% in C2C12 myotubes (p<0.03, not shown), it was hypothesize that increased STARS expression in DM may reflect disruption of actin dynamics and also contribute to the pattern of increased SRF-related gene expression. Similar patterns of SRF-dependent expression are also observed in adipose tissue from insulin resistant subjects and in insulin resistant muscle.
structure (smiles),measurement,setting,value
CC(ONC(=O)c1cc(C(F)(F)F)cc(C(F)(F)F)c1)C(=O)Nc1ccc(Cl)cc1 (stereo not shown) [CCG-1423],SRF target gene expression,[1],does not induces
same,basal and insulin-stimulated 2-deoxyglucose uptake increase,[2],> 4 fold
same,serum insulin levels during glucose tolerance test,"[3]; 15 minutes after glucose injection, HFD+CCG vs vehicle-treated HFD, FIG. 13C",normalized; also recorded: significantly reduced
same,expression of SRF or ELK1,"[3]; HFD mice, 0.15 mg/kg intraperitoneally, two weeks",did not alter
same,"expression of SRF targets in skeletal muscle, e.g., ZYX and PDLIM7","[3]; HFD mice, 0.15 mg/kg intraperitoneally, two weeks, vs vehicle-injected controls",significantly decreased
same,food intake,"[3]; HFD mice, 0.15 mg/kg intraperitoneally, two weeks, vs vehicle-treated HFD mice",No significant change
same,body weight,"[3]; HFD mice, 0.15 mg/kg intraperitoneally, two weeks, vs vehicle-treated HFD mice, FIG. 12, 0.15 mg/kg",No significant change; also recorded: not altered
same,glucose tolerance test area under the curve (AUC),"[3]; HFD+CCG vs vehicle-treated HFD animals, FIG. 13B, p<0.006",significantly reduced
same,adiponectin levels,[3]; HFD-fed mice,No differences
same,circulating fatty acid levels,[3]; HFD-fed mice,No differences
same,insulin tolerance testing,[3]; HFD-fed mice,No differences
same,in vivo glucose tolerance (intra peritoneal glucose tolerance test),"[3]; HFD-fed mice vs HFD-fed vehicle-treated controls, FIG. 13A",significantly improved; also recorded: improves
same,GLUT4 expression increase,[4],4.1 fold
same,p42/44 ERK phosphorylation,[5],no effect; also recorded: minimal change
same,SRF-mediated transcriptional activity (4x CArG / SRE promoter activity),"[6]; C2C12 myoblasts, serum (FBS 2 hours) or dexamethasone stimulation, CCG-1423 1 uM, 16 hours pre-treatment, FIG. 11B",efficiently blocked
same,"SRF transcriptional activity induced by serum, dexamethasone, and insulin","[6]; C2C12 myotubes, FIG. 10",specifically block; also recorded: inhibits
same,basal increase in glucose uptake (mean),[7]; myotubes from control subjects (n=2),1.2 fold
same,basal increase in glucose uptake (mean),[7]; myotubes from diabetic subjects (n=6),3.2 fold
same,increase of insulin-stimulated Akt phosphorylation,"[8]; overnight 1 μM CCG-1423, absence of dexamethasone, p=0.007",41%
same,increase of insulin-stimulated Akt phosphorylation,"[8]; overnight 1 μM CCG-1423, presence of dexamethasone, p=0.01",41%
same,insulin-stimulated Akt phosphorylation (marker of insulin sensitivity),"[8]; dexamethasone-induced insulin resistant myotubes, FIG. 11A",increased; also recorded: improves
same,insulin-stimulated Akt phosphorylation,"[8]; insulin 100 nM, 10 minutes, FIG. 11C",increases
same,p85 expression,[9]; C2C12 myotubes,without altering
same,basal and insulin-stimulated tyrosine phosphorylation of IRS-1 and its association with p85 PI 3-kinase,"[9]; control and DEX-treated myotubes, FIG. 11D",increases
same,phosphorylation of IR and IRS-1 protein,[9]; with insulin stimulation,massive phosphorylation
same,MKL1 localization,[10]; compound alone,almost exclusively localized to the cytoplasm
same,"MKL1 localization, effect on dexamethasone-induced nuclear localization",[10]; with dexamethasone,reversed dexamethasone-induced MKL1 nuclear localization to partial cytoplasmic localization
same,insulin-stimulated deoxyglucose uptake response,"[11]; myotubes incubated with CCG-1423, 1 uM insulin",11.5 fold
same,glucose uptake increase in the basal state,[11]; myotubes incubated with CCG-1423,4 fold
same,GLUT1 expression increase,[12],2.5 fold
CCCCCCCCCCCCCCCC(=O)O [FFA],SRF transcriptional activity at basal level,"[6]; C2C12 myotubes, experimentally induced insulin resistance, FIG. 4",dramatically increased
same,enrichment of MKL1-dependent and -independent SRF pathways,[13],significant enrichment
same,increase of SRF DNA binding activity compared to control,[14],5-10 fold
C/C1=C/C(=O)O[C@@H]2C[C@@H](CC[C@H](C)/C=C\CC1)O[C@@](O)([C@@H]1CSC(=O)N1)C2 [latrunculin B],increase of STARS expression,[15],50%
